Measured values as given in patent US8431593B2, “Heteroaryl amide derivatives” (H. Lundbeck A/S, priority 2006, dated 2013).

target: T1, P2X7 receptor (Homo sapiens, UniProt Q99572); assay: P2X7 calcium mobilization assay, high throughput, antagonist activity (Example 4A); format: cell-based; conditions: 50% decrease in the fluorescence response of cells exposed to 80 μM of 2′(3′)-O-(4-benzoyl-benzoyl)adenosine 5′-triphosphate; determined as in Example 4A; read-out: IC50
T1 construct: host or cells: SH-SY5Y
T1 sequence (Q99572 1-595): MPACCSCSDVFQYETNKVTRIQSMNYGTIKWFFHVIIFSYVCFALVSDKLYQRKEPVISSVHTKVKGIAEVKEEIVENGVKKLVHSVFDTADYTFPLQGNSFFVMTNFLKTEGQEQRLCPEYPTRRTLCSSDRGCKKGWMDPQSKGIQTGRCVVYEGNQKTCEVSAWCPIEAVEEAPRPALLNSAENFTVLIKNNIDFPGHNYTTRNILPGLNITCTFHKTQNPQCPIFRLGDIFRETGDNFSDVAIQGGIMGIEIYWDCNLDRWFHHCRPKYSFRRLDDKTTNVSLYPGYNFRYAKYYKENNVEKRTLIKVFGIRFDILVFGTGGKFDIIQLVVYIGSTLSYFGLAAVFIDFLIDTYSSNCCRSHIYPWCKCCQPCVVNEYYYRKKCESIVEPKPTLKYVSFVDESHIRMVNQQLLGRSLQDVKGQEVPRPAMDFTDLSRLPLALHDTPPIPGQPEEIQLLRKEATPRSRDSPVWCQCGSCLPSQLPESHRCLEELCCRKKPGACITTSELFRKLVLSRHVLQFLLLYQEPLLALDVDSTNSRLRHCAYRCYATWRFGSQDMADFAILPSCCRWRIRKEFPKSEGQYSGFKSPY
In short: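 Antagonism was measured as calcium fluorescence (FLIPR Tetra) in cells seeded one day earlier at 100,000/well, loaded with dye for 1 h and exposed to compound for 1 h at room temperature before agonist. Peak RFU, minus the no-agonist background, was referenced to the mean of the agonist wells.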

Compound	IC50 [nM]
O=C(Cc1cn2c(C(=O)NCC3(c4cccnc4)CCCCC3)cccc2n1)NC1CCCC1 [Compound 865, 2-[2-(cyclopentylamino)-2-oxoethyl]-N-[(1-pyridin-3-ylcyclohexyl)methyl] imidazo[1,2-a] pyridine-5-carboxamide]	< 2000
O=C(Cc1cn2c(C(=O)NCC3(c4ccc(Cl)cc4)CCCCC3)cccc2n1)NC1CCCC1 [Compound 866, N-{[1-(4-chlorophenyl)cyclohexyl]methyl}-2-[2-(cyclopentylamino)-2-oxoethyl]imidazo [1,2-a]pyridine-5-carboxamide]	< 2000
CCC(C)NC(=O)Cc1cn2c(C(=O)NCC3(c4ccc(C(F)(F)F)cc4)CCCCC3)cccc2n1 (stereo not shown) [Compound 868, 2-[2-(sec-butylamino)-2-oxoethyl]-N-({1-[4-(trifluoromethyl)phenyl]cyclohexyl}methyl) imidazo[1,2-a] pyridine-5-carboxamide]	< 2000
CCC(C)NC(=O)Cc1cn2c(C(=O)NCC3(c4cccnc4)CCCCC3)cccc2n1 (stereo not shown) [Compound 869, 2-[2-(sec-butylamino)-2-oxoethyl]-N-[(1-pyridin-3-ylcyclohexyl)methyl] imidazo[1,2-a] pyridine-5-carboxamide]	< 2000
CCC(C)NC(=O)Cc1cn2c(C(=O)NCC3(c4ccc(Cl)cc4)CCCCC3)cccc2n1 (stereo not shown) [Compound 870, 2-[2-(sec-butylamino)-2-oxoethyl]-N-{[1-(4-chlorophenyl)cyclohexyl]methyl}imidazo [1,2-a]pyridine-5-carboxamide]	< 2000
CC(C)(C)CCNC(=O)Cc1cn2c(C(=O)NCC3(c4ccc(Cl)cc4)CCCCC3)cccc2n1 [Compound 871, N-{[1-(4-chlorophenyl)cyclohexyl]methyl}-2-{2-[(3,3-dimethylbutyl)amino]-2-oxoethyl} imidazo[1,2-a] pyridine-5-carboxamide]	< 2000
O=C(Cc1cn2c(C(=O)NCC3(c4ccc(Cl)cc4)CCOCC3)cccc2n1)NCC(F)(F)F [Compound 872, N-{[4-(4-chlorophenyl)tetrahydro-2H-pyran-4-yl]methyl}-2-{2-oxo-2-[(2,2,2-trifluoroethyl)amino]ethyl}imidazo [1,2-a]pyridine-5-carboxamide]	< 2000
O=C(Cc1cn2c(C(=O)NCC3(c4ccc(C(F)(F)F)cc4)CCCCC3)cccc2n1)NCC(F)(F)F [Compound 873, 2-{2-oxo-2-[(2,2,2-trifluoroethyl)amino]ethyl}-N-({1-[4-(trifluoromethyl)phenyl]cyclohexyl}methyl) imidazo[1,2-a] pyridine-5-carboxamide]	< 2000
O=C(Cc1cn2c(C(=O)NCC3(c4cccnc4)CCCCC3)cccc2n1)NCC(F)(F)F [Compound 874, 2-{2-oxo-2-[(2,2,2-trifluoroethyl)amino]ethyl}-N-[(1-pyridin-3-ylcyclohexyl)methyl] imidazo[1,2-a] pyridine-5-carboxamide]	< 2000
O=C(Cc1cn2c(C(=O)NCC3(c4ccc(Cl)cc4)CCCCC3)cccc2n1)NCC(F)(F)F [Compound 875, N-{[1-(4-chlorophenyl)cyclohexyl]methyl}-2-{2-oxo-2-[(2,2,2-trifluoroethyl)amino]ethyl} imidazo[1,2-a] pyridine-5-carboxamide]	< 2000
O=C(Cc1cn2c(C(=O)NCC3(c4ccc(C(F)(F)F)cc4)CCCCC3)cccc2n1)NC1CCCC1 [Compound 877, 2-[2-(cyclopentylamino)-2-oxoethyl]-N-({1-[4-(trifluoromethyl)phenyl]cyclohexyl}methyl) imidazo[1,2-a] pyridine-5-carboxamide]	< 2000
O=C(NCC1(c2ccc(C(F)(F)F)cc2)CCCCC1)c1cccc2nc(CC(=O)N3CCn4cncc4C3)cn12 [Compound 879, 2-[2-(5,6-dihydroimidazo[1,5-a]pyrazin-7(8H)-yl)-2-oxoethyl]-N-({1-[4-(trifluoromethyl)phenyl]cyclohexyl}methyl) imidazo[1,2-a] pyridine-5-carboxamide]	< 2000
O=C(NCC1(c2ccc(Cl)cc2)CCCCC1)c1cccc2nc(CC(=O)N3CCn4cncc4C3)cn12 [Compound 881, N-{[1-(4-chlorophenyl)cyclohexyl]methyl}-2-[2-(5,6-dihydroimidazo[1,5-a]pyrazin-7(8H)-yl)-2-oxoethyl]imidazo[1,2-a]pyridine-5-carboxamide]	< 2000
CC(C)(C)CCNC(=O)Cc1cn2c(C(=O)NCC3(c4ccc(Cl)cc4)CCOCC3)cccc2n1 [Compound 882, N-{[4-(4-chlorophenyl)tetrahydro-2H-pyran-4-yl]methyl}-2-{2-[(3,3-dimethylbutyl)amino]-2-oxoethyl}imidazo[1,2-a]pyridine-5-carboxamide]	< 2000
CC(C)(C)CCNC(=O)Cc1cn2c(C(=O)NCC3(c4ccc(C(F)(F)F)cc4)CCCCC3)cccc2n1 [Compound 883, 2-{2-[(3,3-dimethylbutyl)amino]-2-oxoethyl}-N-({1-[4-(trifluoromethyl)phenyl]cyclohexyl}methyl) imidazo[1,2-a] pyridine-5-carboxamide]	< 2000
CC(C)(C)CCNC(=O)Cc1cn2c(C(=O)NCC3(c4cccnc4)CCCCC3)cccc2n1 [Compound 884, 2-{2-[(3,3-dimethylbutyl)amino]-2-oxoethyl}-N-[(1-pyridin-3-ylcyclohexyl)methyl] imidazo[1,2-a] pyridine-5-carboxamide]	< 2000
CC(C)N1CCN(C(=O)Cc2cn3c(C(=O)NCC4(c5ccc(C(F)(F)F)cc5)CCCCC4)cccc3n2)CC1 [Compound 885, 2-[2-(4-isopropylpiperazin-1-yl)-2-oxoethyl]-N-({1-[4-(trifluoromethyl)phenyl]cyclohexyl}methyl) imidazo[1,2-a] pyridine-5-carboxamide]	< 2000
CC(C)N1CCN(C(=O)Cc2cn3c(C(=O)NCC4(c5ccc(Cl)cc5)CCCCC4)cccc3n2)CC1 [Compound 886, N-{[1-(4-chlorophenyl)cyclohexyl]methyl}-2-[2-(4-isopropylpiperazin-1-yl)-2-oxoethyl] imidazo[1,2-a] pyridine-5-carboxamide]	< 2000

Next, values leading:

IC50 [nM]	Compound
< 2000	O=C(NCC12CC3CC(CC(C3)C1)C2)c1cccc2nc(C3(C(=O)O)CCCCC3)cn12 [Compound 851, 1-{5-[(adamantan-1-ylmethyl)carbamoyl]imidazo [1,2-a]pyridin-2-yl} cyclohexane-carboxylic acid]
< 2000	O=C(Cc1cn2c(C(=O)NCC34CC5CC(CC(C5)C3)C4)cccc2n1)N[C@H]1CCCNC1 [Compound 852, N-(adamantan-1-ylmethyl)-2-{2-oxo-2-[(3S)-piperidin-3-ylamino]ethyl} imidazo [1,2-a]pyridine-5-carboxamide]
< 2000	O=C(NCC12CC3CC(CC(C3)C1)C2)c1cccc2nc(CSc3nnn[nH]3)cn12 [Compound 853, N-(adamantan-1-ylmethyl)-2-[(1H-tetrazol-5-ylthio)methyl] imidazo [1,2-a]pyridine-5-carboxamide]
< 2000	CC(C)CC(CNC(=O)c1cccc2nc(C(=O)n3ccc(N)n3)cn12)c1ccc(Cl)cc1 (stereo not shown) [Compound 854, 2-[(3-amino-1H-pyrazol-1-yl)carbonyl]-N-[2-(4-chlorophenyl)-4-methylpentyl] imidazo [1,2-a]pyridine-5-carboxamide]
< 2000	O=C(NCC12CC3CC(CC(C3)C1)C2)c1cccc2nc(Cn3nnnc3CCO)cn12 [Compound 855, N-(adamantan-1-ylmethyl)-2-{[5-(2-hydroxyethyl)-1H-tetrazol-1-yl]methyl}imidazo [1,2-a]pyridine-5-carboxamide]
< 2000	CC(O)CNC(=O)Cc1cn2c(C(=O)NCC3(c4cccnc4)CCCCC3)cccc2n1 (stereo not shown) [Compound 857, 2-{2-[(2-hydroxypropyl)amino]-2-oxoethyl}-N-[(1-pyridin-3-ylcyclohexyl)methyl] imidazo[1,2-a] pyridine-5-carboxamide]
< 2000	CC(O)CNC(=O)Cc1cn2c(C(=O)NCC3(c4ccc(Cl)cc4)CCCCC3)cccc2n1 (stereo not shown) [Compound 858, N-{[1-(4-chlorophenyl)cyclohexyl]methyl}-2-{2-[(2-hydroxypropyl)amino]-2-oxoethyl} imidazo[1,2-a]pyridine-5-carboxamide]
< 2000	O=C(Cc1cn2c(C(=O)NCC3(c4ccc(C(F)(F)F)cc4)CCCCC3)cccc2n1)NCC1CC1 [Compound 860, 2-{2-[(cyclopropylmethyl)amino]-2-oxoethyl}-N-({1-[4-(trifluoromethyl)phenyl]cyclohexyl}methyl) imidazo[1,2-a] pyridine-5-carboxamide]
< 2000	O=C(Cc1cn2c(C(=O)NCC3(c4ccc(Cl)cc4)CCCCC3)cccc2n1)NCC1CC1 [Compound 862, N-{[1-(4-chlorophenyl)cyclohexyl]methyl}-2-{2-[(cyclopropylmethyl)amino]-2-oxoethyl} imidazo[1,2-a] pyridine-5-carboxamide]
< 2000	CC(O)CNC(=O)Cc1cn2c(C(=O)NCC3(c4ccc(C(F)(F)F)cc4)CCCCC3)cccc2n1 (stereo not shown) [Compound 864, 2-{2-[(2-hydroxypropyl)amino]-2-oxoethyl}-N-({1-[4-(trifluoromethyl)phenyl]cyclohexyl}methyl) imidazo[1,2-a] pyridine-5-carboxamide]
